Data from article PMC3410613 (Frontiers in Plant Science, 2012).

Target: T1, A. thaliana PII (H6PII-tp) (Arabidopsis thaliana, UniProt Q9ZST4)
T1 sequence (Q9ZST4 62-196): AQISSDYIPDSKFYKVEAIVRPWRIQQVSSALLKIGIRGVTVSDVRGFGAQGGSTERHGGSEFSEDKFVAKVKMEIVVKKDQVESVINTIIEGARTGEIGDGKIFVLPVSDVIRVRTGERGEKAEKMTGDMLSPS
Assay: isothermal titration calorimetry
Format: binding

- Kd: 111 ± 3.4 µM
Compound: O=C(O)CCC(=O)C(=O)O [2OG, 2-oxoglutarate]
